Data: ChEMBL document CHEMBL1933028, “Discovery of cyclic amine-substituted benzoic acids as PPARα agonists” (Bioorg Med Chem Lett, 2012)
pEC50: −log10 of the molar value.

Legend:
[1] = Total clearance in rat at 1 mg/kg, po; assay type: ADME, organism-based; parameters: dose 1 mg/kg, route oral; details: in vivo
[2] = test system: Canis familiaris; experiment: Toxicity in high-fat diet fed dog assessed as effect on food intake at 0.03 mg/kg, po administered QD for 1 week (reference value: 3.67+/-0.09 kg); assay type: organism-based, Canis lupus familiaris; parameters: dose 0.03 mg/kg, route oral; details: in vivo, 168 h
[3] = test system: Canis familiaris; experiment: Antidyslipidemic activity in high-fat diet fed dog assessed as decrease in serum triglyceride level at 0.003 mg/kg, po administered QD for 1 week (reference value: 98 +/- 4 mg/dL); assay type: functional, Canis lupus familiaris
[4] = molecular target: T1, Peroxisome proliferator-activated receptor gamma (Canis lupus familiaris, UniProt Q4U3Q4); experiment: Agonist activity at dog PPARgamma; assay type: functional
T1 sequence (Q4U3Q4 whole entry): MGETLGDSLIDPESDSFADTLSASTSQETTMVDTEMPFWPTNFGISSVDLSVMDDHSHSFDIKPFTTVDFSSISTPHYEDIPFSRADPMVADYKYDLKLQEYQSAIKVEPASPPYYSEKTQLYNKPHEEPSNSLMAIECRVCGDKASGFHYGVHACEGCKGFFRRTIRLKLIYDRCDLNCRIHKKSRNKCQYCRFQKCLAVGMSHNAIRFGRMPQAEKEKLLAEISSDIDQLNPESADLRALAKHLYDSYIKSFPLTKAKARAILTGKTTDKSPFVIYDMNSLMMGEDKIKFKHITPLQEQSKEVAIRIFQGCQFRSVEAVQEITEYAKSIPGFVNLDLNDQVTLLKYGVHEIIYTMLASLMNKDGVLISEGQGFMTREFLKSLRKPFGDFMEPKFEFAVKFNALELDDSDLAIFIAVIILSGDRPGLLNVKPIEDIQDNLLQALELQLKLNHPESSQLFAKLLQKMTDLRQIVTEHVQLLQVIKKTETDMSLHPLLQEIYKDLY

[5] = test system: Canis familiaris; experiment: Toxicity in high-fat diet fed dog assessed as effect on food intake at 0.01 mg/kg, po administered QD for 1 week (reference value: 3.67+/-0.09 kg); assay type: organism-based, Canis lupus familiaris; parameters: dose 0.01 mg/kg, route oral; details: in vivo, 168 h
[6] = Oral bioavailability in dog at 0.3 mg/kg; assay type: ADME, organism-based, Canis lupus familiaris; details: in vivo
[7] = test system: Canis familiaris; experiment: Toxicity in high-fat diet fed dog assessed as change in body weight at 0.03 mg/kg, po administered QD for 1 week (reference value: 14.8 +/- 0.7 kg); assay type: organism-based, Canis lupus familiaris; parameters: dose 0.03 mg/kg, route oral; details: in vivo, 168 h
[8] = Total clearance in dog at 0.3 mg/kg, po; assay type: ADME, organism-based, Canis lupus familiaris; parameters: dose 0.3 mg/kg, route oral; details: in vivo
[9] = molecular target: T2, Peroxisome proliferator-activated receptor alpha (Mus musculus, UniProt P23204); experiment: Agonist activity at mouse PPARalpha; assay type: functional
T2 sequence (P23204 whole entry): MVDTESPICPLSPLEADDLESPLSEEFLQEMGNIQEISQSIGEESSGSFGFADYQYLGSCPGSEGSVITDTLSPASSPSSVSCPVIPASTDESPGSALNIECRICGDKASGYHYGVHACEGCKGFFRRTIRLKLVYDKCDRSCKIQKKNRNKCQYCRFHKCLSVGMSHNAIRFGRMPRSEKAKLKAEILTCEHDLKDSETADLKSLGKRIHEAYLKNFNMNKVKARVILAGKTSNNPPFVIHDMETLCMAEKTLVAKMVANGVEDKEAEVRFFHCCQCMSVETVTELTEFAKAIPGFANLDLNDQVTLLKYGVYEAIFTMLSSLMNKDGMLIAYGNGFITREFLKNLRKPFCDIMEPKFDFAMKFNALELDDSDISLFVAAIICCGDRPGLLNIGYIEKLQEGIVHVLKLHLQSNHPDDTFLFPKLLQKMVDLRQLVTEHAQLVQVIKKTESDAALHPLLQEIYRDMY

[10] = molecular target: T3, Peroxisome proliferator-activated receptor delta (Mus musculus, UniProt P35396); experiment: Agonist activity at mouse PPARdelta; assay type: functional
T3 sequence (P35396 whole entry): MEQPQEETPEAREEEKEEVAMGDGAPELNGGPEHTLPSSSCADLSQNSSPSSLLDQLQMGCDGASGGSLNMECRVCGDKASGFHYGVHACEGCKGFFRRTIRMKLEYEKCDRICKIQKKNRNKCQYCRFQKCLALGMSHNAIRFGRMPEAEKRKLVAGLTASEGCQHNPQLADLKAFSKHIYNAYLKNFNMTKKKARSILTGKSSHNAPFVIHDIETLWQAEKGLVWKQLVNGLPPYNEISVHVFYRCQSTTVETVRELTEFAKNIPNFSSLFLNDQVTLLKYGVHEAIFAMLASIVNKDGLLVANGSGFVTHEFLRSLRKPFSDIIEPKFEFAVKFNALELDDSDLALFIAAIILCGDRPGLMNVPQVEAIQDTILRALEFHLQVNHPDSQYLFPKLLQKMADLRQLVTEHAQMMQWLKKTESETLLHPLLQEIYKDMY

[11] = Half life in rat at 1 mg/kg, po; assay type: ADME, organism-based; parameters: dose 1 mg/kg, route oral; details: in vivo

CL/F [1]: 1.53 mL/min/kg | pEC50 [4]: 4.96 | bioavailability [6]: 73.1% | CL/F [8]: 0.333 mL/min/kg | pEC50 [9]: 5.33 | pEC50 [10]: 5.18 | half-life [11]: 10 h
Structure (SMILES): Cc1nc(-c2ccc(Cl)cc2)sc1C(=O)N[C@H]1CCCN(c2cccc(C(=O)O)c2)C1
Activity [2]: 3.51 kg | Activity [3]: 64 mg/dL | Activity [5]: 3.91 kg | Activity [7]: 14.8 kg
